Laboratory results taken from ChEMBL document CHEMBL1125035, “Synthesis and biological activity of novel vitamin D analogues: 24,24-difluoro-25-hydroxy-26,27-dimethylvitamin D3 and 24,24-difluoro-1 alpha,25-dihydroxy-26,27-dimethylvitamin D3” (1990).

What was measured:
Rattus norvegicus [1] = assay: Ability to stimulate intestinal-calcium transport by the administration of compound in rats at a concentration of 5000 pmol at 13 hr.; format: functional, Intestine
Rattus norvegicus [2] = assay: Ability to mobilize Bone-Calcium transport, following the administration of compound in rats at a concentration of 500 pmol at 72 hr.; format: functional, organism-based
Rattus norvegicus [3] = assay: Ability to stimulate intestinal-calcium transport by the administration of compound in rats at a concentration of 50 pmol at 47 hr.; format: functional, Intestine
Rattus norvegicus [4] = assay: Ability to stimulate intestinal-calcium transport by the administration of compound in rats at a concentration of 500 pmol at 13 hr.; format: functional, Intestine
Rattus norvegicus [5] = assay: Ability to mobilize Bone-Calcium transport, following the administration of compound in rats at a concentration of 5000 pmol at 47 hr.; format: functional, organism-based
Rattus norvegicus [6] = assay: Ability to stimulate intestinal-calcium transport by the administration of compound in rats at a concentration of 5000 pmol at 72 hr.; format: functional, Intestine
Rattus norvegicus [7] = assay: Ability to stimulate intestinal-calcium transport by the administration of compound in rats at a concentration of 5000 pmol at 47 hr.; format: functional, Intestine
Rattus norvegicus [8] = assay: Ability to mobilize Bone-Calcium transport, following the administration of compound in rats at a concentration of 50 pmol at 47 hr.; format: functional, organism-based
Rattus norvegicus [9] = assay: Ability to stimulate intestinal-calcium transport by the administration of compound in rats at a concentration of 50 pmol at 72 hr.; format: functional, Intestine
Rattus norvegicus [10] = assay: Ability to mobilize Bone-Calcium transport, following the administration of compound in rats at a concentration of 5 pmol at 13 hr.; format: functional, organism-based
Rattus norvegicus [11] = assay: Ability to stimulate intestinal-calcium transport by the administration of compound in rats at a concentration of 500 pmol at 72 hr.; format: functional, Intestine
Rattus norvegicus [12] = assay: Ability to mobilize Bone-Calcium transport, following the administration of compound in rats at a concentration of 5000 pmol at 13 hr.; format: functional, organism-based
Rattus norvegicus [13] = assay: Ability to mobilize Bone-Calcium transport, following the administration of compound in rats at a concentration of 50 pmol at 13 hr.; format: functional, organism-based
Rattus norvegicus [14] = assay: Ability to stimulate intestinal-calcium transport by the administration of compound in rats at a concentration of 5 pmol at 72 hr.; format: functional, Intestine
Rattus norvegicus [15] = assay: Ability to mobilize Bone-Calcium transport, following the administration of compound in rats at a concentration of 500 pmol at 47 hr.; format: functional, organism-based
Rattus norvegicus [16] = assay: Ability to mobilize Bone-Calcium transport, following the administration of compound in rats at a concentration of 500 pmol at 13 hr.; format: functional, organism-based
Rattus norvegicus [17] = assay: Ability to mobilize Bone-Calcium transport, following the administration of compound in rats at a concentration of 5 pmol at 72 hr.; format: functional, organism-based
Rattus norvegicus [18] = organism: Rattus norvegicus; assay: Calcium binding protein induction in duodenal organ culture at a concentration of 1 nM in Male Albino rats; format: functional
Rattus norvegicus [19] = organism: Rattus norvegicus; assay: Calcium binding protein induction in duodenal organ culture at a concentration of 10 nM in Male Albino rats; format: functional
Rattus norvegicus [20] = organism: Rattus norvegicus; assay: Calcium binding protein induction in duodenal organ culture at a concentration of 100 nM in Male Albino rats; format: functional
[21] = Relative potency against calcium binding protein induction in duodenal organ culture at a concentration of 10 nM compared to 1,25-(OH)2-D3 in Male Albino rats; format: functional
Rattus norvegicus [22] = assay: Ability to stimulate intestinal-calcium transport by the administration of compound in rats at a concentration of 5 pmol at 69 hr.; format: functional, Intestine
Rattus norvegicus [23] = assay: Ability to stimulate intestinal-calcium transport by the administration of compound in rats at a concentration of 500 pmol at 69 hr.; format: functional, Intestine
Rattus norvegicus [24] = assay: Ability to stimulate intestinal-calcium transport by the administration of compound in rats at a concentration of 50 pmol at 48 hr.; format: functional, Intestine
Rattus norvegicus [25] = assay: Ability to stimulate intestinal-calcium transport by the administration of compound in rats at a concentration of 50 pmol at 69 hr.; format: functional, Intestine
Rattus norvegicus [26] = assay: Ability to mobilize Bone-Calcium transport, following the administration of compound in rats at a concentration of 50 pmol at 48 hr.; format: functional, organism-based
Rattus norvegicus [27] = assay: Ability to mobilize Bone-Calcium transport, following the administration of compound in rats at a concentration of 500 pmol at 69 hr.; format: functional, organism-based
Rattus norvegicus [28] = assay: Ability to stimulate intestinal-calcium transport by the administration of compound in rats at a concentration of 500 pmol at 12 hr.; format: functional, Intestine
Rattus norvegicus [29] = assay: Ability to mobilize Bone-Calcium transport, following the administration of compound in rats at a concentration of 500 pmol at 12 hr.; format: functional, organism-based
Rattus norvegicus [30] = assay: Ability to mobilize Bone-Calcium transport, following the administration of compound in rats at a concentration of 50 pmol at 12 hr.; format: functional, organism-based
Rattus norvegicus [31] = assay: Ability to mobilize Bone-Calcium transport, following the administration of compound in rats at a concentration of 5000 pmol at 12 hr.; format: functional, organism-based
Rattus norvegicus [32] = assay: Ability to stimulate intestinal-calcium transport by the administration of compound in rats at a concentration of 5 pmol at 12 hr.; format: functional, Intestine
Rattus norvegicus [33] = assay: Ability to stimulate intestinal-calcium transport by the administration of compound in rats at a concentration of 5 pmol at 48 hr.; format: functional, Intestine
Rattus norvegicus [34] = assay: Ability to stimulate intestinal-calcium transport by the administration of compound in rats at a concentration of 500 pmol at 48 hr.; format: functional, Intestine
Rattus norvegicus [35] = assay: Ability to mobilize Bone-Calcium transport, following the administration of compound in rats at a concentration of 5000 pmol at 48 hr.; format: functional, organism-based
Rattus norvegicus [36] = assay: Ability to stimulate intestinal-calcium transport by the administration of compound in rats at a concentration of 5000 pmol at 48 hr.; format: functional, Intestine
Rattus norvegicus [37] = assay: Ability to stimulate intestinal-calcium transport by the administration of compound in rats at a concentration of 50 pmol at 12 hr.; format: functional, Intestine
Rattus norvegicus [38] = assay: Ability to mobilize Bone-Calcium transport, following the administration of compound in rats at a concentration of 5 pmol at 48 hr.; format: functional, organism-based
Rattus norvegicus [39] = assay: Ability to mobilize Bone-Calcium transport, following the administration of compound in rats at a concentration of 50 pmol at 69 hr.; format: functional, organism-based
Rattus norvegicus [40] = assay: Ability to mobilize Bone-Calcium transport, following the administration of compound in rats at a concentration of 500 pmol at 48 hr.; format: functional, organism-based

Row | SMILES | Serosal/Mucosal Ca (Rattus norvegicus [1]) | Serum Ca2+ (Rattus norvegicus [2]) [mg/dL] | Serosal/Mucosal Ca (Rattus norvegicus [3]) | Serosal/Mucosal Ca (Rattus norvegicus [4]) | Serum Ca2+ (Rattus norvegicus [5]) [mg/dL] | Serosal/Mucosal Ca (Rattus norvegicus [6]) | Serosal/Mucosal Ca (Rattus norvegicus [7]) | Serum Ca2+ (Rattus norvegicus [8]) [mg/dL] | Serosal/Mucosal Ca (Rattus norvegicus [9]) | Serum Ca2+ (Rattus norvegicus [10]) [mg/dL] | Serosal/Mucosal Ca (Rattus norvegicus [11]) | Serum Ca2+ (Rattus norvegicus [12]) [mg/dL] | Serum Ca2+ (Rattus norvegicus [13]) [mg/dL] | Serosal/Mucosal Ca (Rattus norvegicus [14]) | Serum Ca2+ (Rattus norvegicus [15]) [mg/dL] | Serum Ca2+ (Rattus norvegicus [16]) [mg/dL] | Serum Ca2+ (Rattus norvegicus [17]) [mg/dL] | Serosal/Mucosal Ca (Rattus norvegicus [22]) | Serosal/Mucosal Ca (Rattus norvegicus [23]) | Serosal/Mucosal Ca (Rattus norvegicus [24]) | other results
1 | C=C1CC[C@H](O)C/C1=C/C=C1\CCC[C@]2(C)[C@@H]([C@H](C)CCCC(C)(C)O)CC[C@@H]12 [CALCIFEDIOL ANHYDROUS] | 5.43 | 5.04 | 11.54 | 3.6 | 6.24 | 11.48 | 11.01 | 4.68 | 8.87 | 4.4 | 9.89 | 6.82 | 4.86 | 3.59 | 5.12 | 6.22 | 4.32 | – | – | – | –
2 | C=C1CC[C@H](O)C/C1=C/C=C1\CCC[C@]2(C)[C@@H]([C@H](C)CCC(F)(F)C(O)(CC)CC)CC[C@@H]12 | 4.84 | 4.38 | 3.29 | 5.85 | 6.16 | 9.39 | 11.06 | 4.63 | 2.84 | 4.2 | 7.29 | 5.92 | 4.14 | 2.2 | 4.5 | 5.14 | 4.2 | – | – | – | Ca2+ binding protein (Rattus norvegicus [18]): 10.1 ug (100mg of duodenum)-1; Ca2+ binding protein (Rattus norvegicus [19]): 22.4 ug (100mg of duodenum)-1; Ca2+ binding protein (Rattus norvegicus [20]): 66.7 ug (100mg of duodenum)-1; Relative potency [21]: 4.5
3 | C=C1/C(=C\C=C2/CCC[C@]3(C)[C@@H]([C@H](C)CCC(F)(F)C(O)(CC)CC)CC[C@@H]23)C[C@@H](O)C[C@@H]1O | – | – | – | – | – | – | – | – | – | – | – | – | – | – | – | – | – | 2.34 | 5.46 | 4.25 | Serosal/Mucosal Ca (Rattus norvegicus [25]): 3.04; Serum Ca2+ (Rattus norvegicus [26]): 4.08 mg/dL; Serum Ca2+ (Rattus norvegicus [27]): 4.87 mg/dL; Serosal/Mucosal Ca (Rattus norvegicus [28]): 8.92; Serum Ca2+ (Rattus norvegicus [29]): 6.12 mg/dL; Serum Ca2+ (Rattus norvegicus [30]): 5.5 mg/dL; Serum Ca2+ (Rattus norvegicus [31]): 6.4 mg/dL; Serosal/Mucosal Ca (Rattus norvegicus [32]): 2.85; Serosal/Mucosal Ca (Rattus norvegicus [33]): 2.09; Serosal/Mucosal Ca (Rattus norvegicus [34]): 5.39; Serum Ca2+ (Rattus norvegicus [35]): 5.86 mg/dL; Serosal/Mucosal Ca (Rattus norvegicus [36]): 8; Serosal/Mucosal Ca (Rattus norvegicus [37]): 4.41; Serum Ca2+ (Rattus norvegicus [38]): 3.98 mg/dL; Serum Ca2+ (Rattus norvegicus [39]): 4.02 mg/dL; Serum Ca2+ (Rattus norvegicus [40]): 4.94 mg/dL
4 | C=C1/C(=C\C=C2/CCC[C@]3(C)[C@@H]([C@H](C)CCCC(C)(C)O)CC[C@@H]23)C[C@@H](O)C[C@@H]1O [CALCITRIOL] | – | – | – | – | – | – | – | – | – | – | – | – | – | – | – | – | – | 2.75 | 5.67 | 4.71 | Serosal/Mucosal Ca (Rattus norvegicus [25]): 5.69; Serum Ca2+ (Rattus norvegicus [26]): 4.54 mg/dL; Serum Ca2+ (Rattus norvegicus [27]): 4.48 mg/dL; Serosal/Mucosal Ca (Rattus norvegicus [28]): 4.06; Serum Ca2+ (Rattus norvegicus [29]): 6.1 mg/dL; Serum Ca2+ (Rattus norvegicus [30]): 5.58 mg/dL; Serum Ca2+ (Rattus norvegicus [31]): 6.14 mg/dL; Serosal/Mucosal Ca (Rattus norvegicus [32]): 2.62; Serosal/Mucosal Ca (Rattus norvegicus [33]): 3.19; Serosal/Mucosal Ca (Rattus norvegicus [34]): 5.98; Serum Ca2+ (Rattus norvegicus [35]): 4.78 mg/dL; Serosal/Mucosal Ca (Rattus norvegicus [36]): 7.22; Serosal/Mucosal Ca (Rattus norvegicus [37]): 3.23; Serum Ca2+ (Rattus norvegicus [38]): 4.08 mg/dL; Serum Ca2+ (Rattus norvegicus [39]): 4.55 mg/dL; Serum Ca2+ (Rattus norvegicus [40]): 4.35 mg/dL
